Measured values published in PubChem BioAssay (NCI).
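Grown in 96-well plates, cells were treated for 48 hours with each compound at five concentrations. Insufficient inhibition: endpoint recorded as highest concentration tested. TGI is the concentration that stops growth completely.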 Where a SMILES comes first, the peptide text is derived from it. [ ]: non-standard residue; d: D form. The star is where a group is joined. ξ: configuration not given here. NMeY = CN[C@@H](Cc1ccc(O)cc1)C(=O)O; Cbz = O=C(OCc1ccccc1)*; ξA = CC(N)C(=O)O

How the values were obtained:
Assay in all cases: inhibition of tumour cell growth, NCI panel, 48 h
BT-549 breast = system: BT-549 breast
K-562 leukemia = system: K-562 leukemia
OVCAR-4 ovarian = system: OVCAR-4 ovarian
HT29 colon = system: HT29 colon
OVCAR-3 ovarian = system: OVCAR-3 ovarian
NCI-H23 lung = system: NCI-H23 lung
SNB-75 CNS = system: SNB-75 CNS
NCI-H460 lung = system: NCI-H460 lung
COLO 205 colon = system: COLO 205 colon
MDA-MB-231 breast = system: MDA-MB-231 breast
SW-620 colon = system: SW-620 colon

Row | Structure (SMILES) | TGI (BT-549 breast) [µM] | TGI (K-562 leukemia) [µM] | TGI (OVCAR-4 ovarian) [µM] | TGI (HT29 colon) [µM] | TGI (OVCAR-3 ovarian) [µM] | TGI (NCI-H23 lung) [µM] | TGI (SNB-75 CNS) [µM] | TGI (NCI-H460 lung) [µM] | TGI (COLO 205 colon) [µM] | TGI (MDA-MB-231 breast) [µM] | TGI (SW-620 colon) [µM]
1 | COc1ccc(C[C@H]2COC(=O)[C@@H]2Cc2ccc(Br)cc2)cc1OC | 84.2 | > 72 | > 100 | > 100 | > 100 | > 100 | 85.1 | > 100 | 39.5 | 77.2 | > 100
2 | COc1ccc(C[C@@H](C(=O)N[C@@H](C)C(N)=O)N(C)C(=O)[C@@H]2CCCN2C(=O)[C@H](CC(C)C)NC(=O)C(C)NC(=O)OCc2ccccc2)cc1 (stereo not given in full) (Cbz-[ξA]LP[NMeY](Me)A-NH2) | > 100 | > 100 | > 100 | > 100 | > 100 | > 100 | > 100 | > 100 | > 100 | > 100 | > 100
3 | COc1ccc2nc3ccc(OC)cc3c(S(=O)Cc3ccccc3)c2c1 (stereo not given) | 27.4 | > 25.6 | 30.2 | 10.6 | 26.1 | 37.5 | 28.8 | > 74.5 | 25.9 | 30.8 | > 32.1
4 | O=C(Nc1ccccc1)OCCN=c1c2ccccc2ccc2ccccc12 | 34.1 | 51.1 | > 100 | 38.8 | 44.2 | > 100 | 80.9 | 59.1 | 51.4 | > 100 | > 100
5 | Cc1cc2c(cc1Cl)SC(NNCCO)=NS2(=O)=O | > 100 | > 100 | > 100 | > 100 | – | > 100 | > 100 | > 100 | > 100 | > 100 | > 100
6 | O=c1[nH][nH]c(=O)n1Cc1ccccc1 | > 100 | > 100 | > 100 | > 100 | > 100 | > 100 | > 100 | > 100 | > 100 | > 100 | > 100
7 | COc1ccc2nc3c4c(nccc4c2c1)-c1ncccc1C3=O | 0.528 | 0.174 | 2.01 | 1.14 | 0.0569 | 0.265 | 0.378 | 0.119 | 1.28 | 3.94 | 0.567
8 | Cc1cc(NS(=O)(=O)c2ccc(NO)cc2)no1 | > 100 | 43.7 | > 100 | > 100 | > 100 | – | > 100 | > 100 | > 100 | > 100 | 82.9
9 | COC(=O)c1cc(/C=C/C(=O)Cc2ccccc2)cn1S(=O)(=O)c1ccccc1 | > 100 | > 100 | > 100 | > 100 | > 100 | > 100 | > 100 | > 100 | > 100 | > 100 | –
10 | CC(=Nc1ccc(Cl)cc1)c1ccncc1 | > 100 | > 100 | > 100 | > 100 | > 100 | > 100 | > 100 | > 100 | > 100 | > 100 | > 100
11 | CC(C)=CCC/C(C)=C/Cc1c2c(c3oc(-c4ccc(O)c(O)c4)c(O)c(=O)c3c1O)C=CC(C)(C)O2 | 15 | 9.63 | 9.5 | 9.79 | 6.34 | 11.6 | 11.6 | 10.9 | 5.33 | 14.5 | –
12 | COc1ccc(COCC[C@H](C)OC2OC(CO[Si](C)(C)C(C)(C)C)C(O)C(O)C2O)cc1 (stereo not given in full) | > 100 | > 100 | > 100 | > 100 | > 100 | > 100 | > 100 | > 100 | > 100 | > 100 | > 100
13 | N#Cc1c(C#N)c(SSc2c(C#N)c(C#N)c(N)n2-c2cccc3ccccc23)n(-c2cccc3ccccc23)c1N | 12.6 | > 100 | 41.9 | 39.2 | – | > 63.2 | 38.7 | > 100 | 10.6 | 40.8 | > 100
14 | COc1ccc2nc3cccc([N+](=O)[O-])c3c(NCCC(=O)O)c2c1 | > 10 | > 10 | > 10 | > 10 | > 10 | > 10 | > 10 | > 10 | > 10 | > 10 | > 10
15 | COc1cccc(CCn2c(N)c(-c3cc(Cl)cc(Cl)c3)c3ccc([N+](=O)[O-])cc3c2=O)c1 | > 59.5 | 4.28 | > 100 | > 100 | > 100 | 5.99 | > 100 | > 30.8 | 4.05 | 61.1 | > 100
